From PubChem BioAssay (NCI)
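Compound exposure: 48 hours, 5 concentrations, 96-well plates. At the GI50, growth is halved. TGI marks complete inhibition of growth.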

Experiments:
Test in all cases: inhibition of tumour cell growth, NCI panel, 48 h; in the data active = GI50 below about 0.43 µM; inactive = the rest
[1] = test system: NCI/ADR-RES ovarian
[2] = test system: UO-31 renal
[3] = test system: U251 CNS
[4] = test system: NCI-H460 lung
[5] = test system: SNB-19 CNS
[6] = test system: A549 NSCLC
[7] = test system: SW-620 colon
[8] = test system: BT-549 breast
[9] = test system: HCT-116 colon
[10] = test system: ACHN renal
[11] = test system: IGROV1 ovarian
[12] = test system: HS 578T breast
[13] = test system: RPMI-8226 leukemia
[14] = test system: KM12 colon
[15] = test system: UACC-62 melanoma
[16] = test system: MDA-MB-435
[17] = test system: RXF 393 renal
[18] = test system: COLO 205 colon
[19] = test system: CCRF-CEM leukemia
[20] = test system: DU-145 prostate
[21] = test system: PC-3 prostate
[22] = test system: K-562 leukemia
[23] = test system: SNB-75 CNS
[24] = test system: HOP-62 NSCLC
[25] = test system: SF-539 CNS
[26] = test system: NCI-H522 lung
[27] = test system: OVCAR-5 ovarian

O=C1c2ccccc2-c2nnc(-c3ccc(Br)cc3)cc21
inactive: GI50 [1] > 100 µM | GI50 [2] > 100 µM | GI50 [3] > 100 µM | GI50 [4] > 100 µM | GI50 [5] > 100 µM | GI50 [6] > 100 µM | GI50 [7] > 100 µM | GI50 [8] > 100 µM | GI50 [9] > 100 µM | GI50 [10] > 100 µM | GI50 [11] > 100 µM | GI50 [12] > 100 µM | GI50 [13] > 100 µM | GI50 [14] > 100 µM | GI50 [15] > 100 µM | GI50 [16] > 100 µM | GI50 [17] > 100 µM | GI50 [18] > 100 µM | GI50 [19] > 100 µM | GI50 [20] > 100 µM | GI50 [21] > 100 µM | GI50 [22] > 100 µM | GI50 [23] > 100 µM | GI50 [24] > 100 µM | GI50 [25] > 100 µM | GI50 [26] > 100 µM | GI50 [27] > 100 µM
> 100 µM: TGI [1] | TGI [2] | TGI [3] | TGI [4] | TGI [5] | TGI [6] | TGI [7] | TGI [8] | TGI [9] | TGI [10] | TGI [11] | TGI [12] | TGI [13] | TGI [14] | TGI [15] | TGI [16] | TGI [17] | TGI [18] | TGI [19] | TGI [20] | TGI [21] | TGI [22] | TGI [23] | TGI [24] | TGI [25] | TGI [26] | TGI [27]
